Measurements: the NIST ThermoML archive (doi:10.1021/je301164d)
± gives the expanded uncertainty stated by the source.

Details: Fluid (supercritical or subcritical phases)

FC(C(F)(F)F)C(F)(F)F [1,1,1,2,3,3,3-heptafluoropropane]
Details	speed of sound [m/s]
280 K, 603.72 kPa	494.1 ± 0.23
280 K, 1104.4 kPa	498.92 ± 0.23
280 K, 1604.7 kPa	503.64 ± 0.23
280 K, 2105 kPa	508.26 ± 0.23
280 K, 3105.8 kPa	517.26 ± 0.23
280 K, 4106.2 kPa	525.95 ± 0.24
280 K, 5107.1 kPa	534.35 ± 0.24
280 K, 6107.9 kPa	542.49 ± 0.24
280 K, 7109.3 kPa	550.4 ± 0.25
280 K, 8110 kPa	558.07 ± 0.25
280 K, 9110.7 kPa	565.55 ± 0.25
280 K, 10111 kPa	572.83 ± 0.26
280 K, 12613 kPa	590.29 ± 0.26
280 K, 15115 kPa	606.8 ± 0.27
280 K, 17616 kPa	622.5 ± 0.27
280 K, 20118 kPa	637.48 ± 0.28
280 K, 35129 kPa	716.11 ± 0.31
280 K, 40132 kPa	739.1 ± 0.32
280 K, 45136 kPa	760.88 ± 0.33
280 K, 50139 kPa	781.61 ± 0.34
280.01 K, 25122 kPa	665.6 ± 0.29
280.01 K, 30125 kPa	691.69 ± 0.3
299.99 K, 1103 kPa	417.61 ± 0.2
299.99 K, 1603.4 kPa	423.61 ± 0.2
299.99 K, 2103.8 kPa	429.45 ± 0.2
300 K, 3106.4 kPa	440.66 ± 0.21
300 K, 4107.2 kPa	451.3 ± 0.21
300 K, 5107.9 kPa	461.45 ± 0.21
300 K, 6108.6 kPa	471.17 ± 0.22
300 K, 7109.4 kPa	480.51 ± 0.22
300 K, 8110.1 kPa	489.5 ± 0.23
300 K, 9110.1 kPa	498.18 ± 0.23
300 K, 10111 kPa	506.58 ± 0.23
300 K, 12612 kPa	526.5 ± 0.24
300 K, 15114 kPa	545.09 ± 0.24
300 K, 17616 kPa	562.57 ± 0.25
300 K, 20118 kPa	579.11 ± 0.26
300 K, 25122 kPa	609.85 ± 0.27
300 K, 30126 kPa	638.04 ± 0.28
300 K, 35129 kPa	664.19 ± 0.29
300 K, 40132 kPa	688.66 ± 0.3
300 K, 45136 kPa	711.71 ± 0.31
300 K, 50139 kPa	733.55 ± 0.32
320 K, 1104.2 kPa	332.96 ± 0.17
320 K, 2104.9 kPa	349.11 ± 0.18
320 K, 3105.5 kPa	363.82 ± 0.18
320 K, 4105.6 kPa	377.39 ± 0.19
320 K, 5106.4 kPa	390.04 ± 0.19
320 K, 6107.1 kPa	401.94 ± 0.19
320 K, 7107.7 kPa	413.18 ± 0.2
320 K, 8108.4 kPa	423.87 ± 0.2
320 K, 9109 kPa	434.06 ± 0.21
320 K, 10110 kPa	443.83 ± 0.21
320 K, 12612 kPa	466.66 ± 0.22
320 K, 15113 kPa	487.61 ± 0.23
320 K, 17615 kPa	507.06 ± 0.23
320 K, 20117 kPa	525.27 ± 0.24
320 K, 25120 kPa	558.72 ± 0.25
320 K, 30124 kPa	589.03 ± 0.26
320 K, 35128 kPa	616.9 ± 0.27
320 K, 40131 kPa	642.8 ± 0.28
320 K, 45135 kPa	667.06 ± 0.29
320.01 K, 50138 kPa	689.95 ± 0.3
340 K, 1603.1 kPa	249.98 ± 0.14
340 K, 2103.4 kPa	262.38 ± 0.15
340 K, 3104.1 kPa	283.96 ± 0.15
340 K, 4104.8 kPa	302.59 ± 0.16
340 K, 5105.4 kPa	319.17 ± 0.17
340 K, 6106 kPa	334.23 ± 0.17
340 K, 7106.7 kPa	348.1 ± 0.18
340 K, 8108.1 kPa	361.03 ± 0.18
340 K, 9108.9 kPa	373.15 ± 0.18
340 K, 10110 kPa	384.6 ± 0.19
340 K, 12612 kPa	410.84 ± 0.2
340 K, 15113 kPa	434.43 ± 0.21
340 K, 17615 kPa	456 ± 0.21
340 K, 20117 kPa	475.96 ± 0.22
340 K, 25120 kPa	512.15 ± 0.23
340 K, 30124 kPa	544.54 ± 0.25
340 K, 35127 kPa	574.06 ± 0.26
340 K, 40130 kPa	601.3 ± 0.27
340 K, 45134 kPa	626.7 ± 0.28
340 K, 50138 kPa	650.55 ± 0.29
360 K, 3604.3 kPa	209.76 ± 0.13
360 K, 4104.8 kPa	223.69 ± 0.14
360 K, 5105.6 kPa	247.37 ± 0.14
360 K, 6106.5 kPa	267.43 ± 0.15
360 K, 7107.4 kPa	285.07 ± 0.15
360.01 K, 8109.2 kPa	300.98 ± 0.16
360.01 K, 9110 kPa	315.53 ± 0.17
360.01 K, 10111 kPa	329.01 ± 0.17
360.01 K, 12612 kPa	359.17 ± 0.18
360.01 K, 15114 kPa	385.62 ± 0.19
360.01 K, 17616 kPa	409.39 ± 0.2
360.01 K, 20118 kPa	431.12 ± 0.2
360.01 K, 25122 kPa	470 ± 0.22
360.01 K, 30125 kPa	504.36 ± 0.23
360.01 K, 35129 kPa	535.41 ± 0.24
360.01 K, 40132 kPa	563.88 ± 0.25
360.01 K, 45135 kPa	590.29 ± 0.26
360.01 K, 50139 kPa	615 ± 0.27
380 K, 7107.3 kPa	224.9 ± 0.14
380 K, 8108.1 kPa	244.61 ± 0.14
380 K, 9108.9 kPa	262.08 ± 0.15
380 K, 10110 kPa	277.88 ± 0.15
380 K, 11110 kPa	292.38 ± 0.16
380 K, 12111 kPa	305.84 ± 0.16
380 K, 13112 kPa	318.45 ± 0.17
380 K, 14112 kPa	330.32 ± 0.17
380 K, 15113 kPa	341.58 ± 0.17
380 K, 17615 kPa	367.5 ± 0.18
380 K, 20117 kPa	390.9 ± 0.19
380 K, 22618 kPa	412.36 ± 0.2
380 K, 25120 kPa	432.25 ± 0.21
380 K, 30123 kPa	468.39 ± 0.22
380 K, 35127 kPa	500.79 ± 0.23
380 K, 40130 kPa	530.34 ± 0.24
380 K, 45134 kPa	557.64 ± 0.25
380 K, 50137 kPa	583.09 ± 0.26
400 K, 10108 kPa	232.81 ± 0.14
400 K, 11109 kPa	249.04 ± 0.14
400 K, 12109 kPa	263.93 ± 0.15
400 K, 13110 kPa	277.75 ± 0.15
400 K, 14111 kPa	290.67 ± 0.16
400 K, 15112 kPa	302.83 ± 0.16
400 K, 16112 kPa	314.36 ± 0.17
400 K, 17113 kPa	325.31 ± 0.17
400 K, 18114 kPa	335.78 ± 0.17
400 K, 19115 kPa	345.8 ± 0.17
400 K, 20116 kPa	355.43 ± 0.18
400 K, 22618 kPa	378.04 ± 0.19
400 K, 25119 kPa	398.88 ± 0.19
400 K, 27621 kPa	418.29 ± 0.2
400 K, 30123 kPa	436.5 ± 0.21
400 K, 35126 kPa	470.02 ± 0.22
400 K, 40130 kPa	500.46 ± 0.23
400 K, 45133 kPa	528.48 ± 0.24
400 K, 50137 kPa	554.55 ± 0.25
420 K, 12108 kPa	229.23 ± 0.14
420 K, 13109 kPa	243.75 ± 0.14
420 K, 14110 kPa	257.31 ± 0.14
420 K, 15111 kPa	270.06 ± 0.15
420 K, 16111 kPa	282.11 ± 0.15
420 K, 17112 kPa	293.55 ± 0.16
420 K, 18113 kPa	304.45 ± 0.16
420 K, 19114 kPa	314.88 ± 0.17
420 K, 20115 kPa	324.88 ± 0.17
420 K, 22617 kPa	348.3 ± 0.18
420 K, 25118 kPa	369.82 ± 0.18
420 K, 27620 kPa	389.82 ± 0.19
420 K, 30122 kPa	408.54 ± 0.2
420 K, 35125 kPa	442.89 ± 0.21
420 K, 40129 kPa	474.01 ± 0.22
420 K, 45133 kPa	502.59 ± 0.23
420 K, 50136 kPa	529.12 ± 0.24
420 K, 55140 kPa	553.96 ± 0.25
420 K, 60143 kPa	577.36 ± 0.26
420 K, 70150 kPa	620.64 ± 0.28
420 K, 80158 kPa	660.12 ± 0.29
420 K, 90165 kPa	696.59 ± 0.31
